One experiment has as its target T1, ACAT (Oryctolagus cuniculus, UniProt G1SFD9).
T1 construct: from tissue; host or cells: domestic rabbit intestinal mucosa, microsome fraction (105,000×g precipitate)
T1 sequence (G1SFD9 1-524): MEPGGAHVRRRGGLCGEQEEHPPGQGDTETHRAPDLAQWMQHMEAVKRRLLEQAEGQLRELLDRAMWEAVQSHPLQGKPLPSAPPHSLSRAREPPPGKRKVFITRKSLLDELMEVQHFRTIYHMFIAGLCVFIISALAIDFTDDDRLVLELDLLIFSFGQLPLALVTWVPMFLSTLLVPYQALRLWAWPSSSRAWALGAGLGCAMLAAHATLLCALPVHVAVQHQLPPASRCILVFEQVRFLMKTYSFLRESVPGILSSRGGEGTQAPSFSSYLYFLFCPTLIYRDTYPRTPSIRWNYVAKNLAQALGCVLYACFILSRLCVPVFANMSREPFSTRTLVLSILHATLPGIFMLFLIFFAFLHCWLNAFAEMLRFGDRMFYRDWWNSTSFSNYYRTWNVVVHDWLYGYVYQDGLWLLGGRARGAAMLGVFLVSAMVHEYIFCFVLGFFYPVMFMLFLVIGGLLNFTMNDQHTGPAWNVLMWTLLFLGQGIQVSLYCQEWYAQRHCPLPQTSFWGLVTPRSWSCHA
Put plainly: ACAT enzyme inhibitory activity of rabbit intestinal mucosa. In kind it is biochemical. The conditions noted are these: rabbit intestinal mucosa microsome, [1-14C] oleoyl CoA, 37° C., pH 7.4. The method, then:
Measurement of ACAT enzyme inhibitory activity (measurement of ACAT enzyme inhibitory activity of rabbit intestinal mucosa)
Preparation of a domestic rabbit intestinal mucosa microsome and measurement of the ACAT enzyme activity were conducted by slightly modifying a method established by Salone and Field (see Biochemica et Biophysica, vol. 712, 557 (1982).
The supernatant was further centrifuged at 105,000×g and a temperature of 4° C. for one hour to provide a precipitate. The precipitate was resuspended in the buffer A to provide a microsome fraction.
A 1 %v/v dimethylsulfoxide solution of each specimen compound in a predetermined concentration was added to the buffer A containing 43 μM serum albumin and 0.5 mg/ml microsome fraction, and the mixture was heated at 37° C. for 5 min.
Then, 43 μM oleoyl CoA containing [1^-14 C] oleoyl CoA (3.7 kB) was added thereto, the mixture was heated at 37° C. for 10 rain, and chloroform/methanol (2/1) containing 10 mg/ml cholesteryl oleate was added thereto to terminate the reaction.
0.111 kB of [^3 H] cholesteryl oleate and 1N hydrochloric acid were added thereto, and the mixture was stirred. The cholesteryl oleate extracted into the chloroform layer was isolated by thin-layer chromatography, and the radioactivity was measured as the ACAT activity.

A further experiment has as its system serum cholesterol. Briefly: percentage change of serum cholesterol in cholesterol-fed rats. In kind it is in vivo, Male Wistar rats. The conditions noted are these: Rattus norvegicus, 72 h; 10 mg/kg oral, once a day for three days, cholesterol-enriched feed, vs control. From the text: Measurement of percentage change of serum cholesterol
Male Wistar rats having a weight of 200 g were preliminarily bred for 7 days while they freely ingested a normal feed (CE-2 manufactured by CLEA Japan Inc.).
Thereafter, they were bred for 3 days while they freely ingested a feed enriched with cholesterol and fat (2% cholesterol, 1% cholic acid, 20% casein, 45% fine granulated sugar, 12% coconut oil, 4% KC flock, 1% mixed vitamin, 7% mixed mineral and 8% dried fish powder; a product of CLEA Japan Inc.). During the cholesterol loading period, the test compound of the present invention was orally administered to the above test animals at a dose of 0.1 to 10 mg per kg of the weight once a day for three days. On the other hand, the excipient alone was administered to the control animals.
After 8 hrs from the last administration, the test animals were fasted. 16 hr after the initiation of the fasting, these test animals were slaughtered. The serum cholesterol level was measured for each animal.
The results were compared with those of the control and are given as percentage serum cholesterol (%) in Table 3.
Percentage change of serum cholesterol (%)={(A-B)/B}×100
wherein A represents the total cholesterol level of serum in the group of rats to which the test compound was administered; and B represents the total cholesterol level of serum in the control group of rats.

The structures appear in SMILES notation.

What is called IC50 is the midpoint of a concentration-inhibition curve. Low values mean inhibition by little substance, high ones a need for much substance.

In turn, `Cc1cc(C)c(NC(=O)C(C)(C)CCCCN2CCN(Cc3ccccc3)CC2)c2c1CC(C)(C)O2` [Ex. 78] came in with an IC50 on ACAT of 330 nM. Moreover, the change in vivo at 10 mg/kg in the experiment on serum cholesterol was -43%.

The values above are taken from patent publication US5496853A, “Benzoxa condensed ring compounds, process for producing the same and pharmaceutical composition comprising the same” (Teijin Limited, priority 1990, dated 1996).
